{"source": "ChEMBL document CHEMBL1124292", "about": "“Synthesis and evaluation of neoplastic cell growth inhibition of 1-N-alkylamide analogues of glycero-3-phosphocholine” (1988)"}
{"test_system": "HL-60", "assay": "Inhibitory dose against HL60 human leukemic cells after incubation for 48 h", "type": "functional", "conditions": "HL-60, 48 h, read-out: ID50 (the source's name)", "units": {"IC50": "µM"}}
{"smiles": "CCCCCCCCCCCCCCCC(=O)NCC(COP(=O)([O-])OCC[N+](C)(C)C)OC", "note": "(stereo unspecified)", "IC50": 3.32}
{"smiles": "CCCCCCCCCCCCCCCCCCOCC(COP(=O)([O-])OCC[N+](C)(C)C)OC", "note": "(racemic) [EDELFOSINE]", "IC50": 2.47}
{"smiles": "CCCCCCCCCCCCCCCC(=O)NCC(COP(=O)([O-])OCC[N+](C)(C)C)OCC", "note": "(stereo unspecified)", "IC50": 2.32}
{"smiles": "CCCCCCCCCCCCCCCCCC(=O)NCC(COP(=O)([O-])OCC[N+](C)(C)C)OC", "note": "(stereo unspecified)", "IC50": 2.45}
{"smiles": "CCCCCCCCCCCCCCCC(=O)NCC(O)COP(=O)([O-])OCC[N+](C)(C)C", "note": "(stereo unspecified)", "IC50": "> 10"}
{"smiles": "CCCCCCCCCCCCCCCCCC(=O)NCC(COP(=O)([O-])OCC[N+](C)(C)C)OCC", "note": "(stereo unspecified)", "IC50": 1.64}
